Target: T1, Vtc1/Vtc3/Vtc4 complex (VTC complex) (Saccharomyces cerevisiae, UniProt P47075+Q02725, Q02725:K126A/Q02725:K129A/Q02725:K133A)
T1 construct: full-length subunits co-expressed in Expi293F; Vtc1 C-terminal HA, Vtc3 N-terminal 3xFlag, Vtc4 C-terminal 2xStrep; detergent-purified; 3:1:1 pentamer; with Vacuolar transporter chaperone complex subunit 1
T1 sequence (P47075 1-721): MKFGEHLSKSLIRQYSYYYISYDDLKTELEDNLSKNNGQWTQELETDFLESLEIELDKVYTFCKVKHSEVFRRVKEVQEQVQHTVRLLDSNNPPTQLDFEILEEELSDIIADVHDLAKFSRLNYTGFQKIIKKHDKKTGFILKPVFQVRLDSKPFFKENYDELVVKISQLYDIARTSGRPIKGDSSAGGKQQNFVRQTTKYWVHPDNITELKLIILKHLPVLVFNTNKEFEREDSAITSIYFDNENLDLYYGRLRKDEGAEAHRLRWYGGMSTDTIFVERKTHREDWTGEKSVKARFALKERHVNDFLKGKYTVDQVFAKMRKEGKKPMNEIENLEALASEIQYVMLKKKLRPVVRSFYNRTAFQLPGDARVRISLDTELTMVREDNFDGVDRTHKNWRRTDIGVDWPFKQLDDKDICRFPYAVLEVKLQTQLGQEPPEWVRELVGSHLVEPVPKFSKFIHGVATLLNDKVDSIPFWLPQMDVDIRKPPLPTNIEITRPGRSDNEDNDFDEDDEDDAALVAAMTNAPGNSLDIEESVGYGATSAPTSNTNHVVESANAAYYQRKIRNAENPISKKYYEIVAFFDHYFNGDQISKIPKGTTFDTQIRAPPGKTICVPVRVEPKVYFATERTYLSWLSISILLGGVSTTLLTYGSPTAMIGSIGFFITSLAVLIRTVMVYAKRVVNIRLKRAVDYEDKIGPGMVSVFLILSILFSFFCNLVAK
T1 sequence (Q02725 1-835 K126A/K129A/K133A): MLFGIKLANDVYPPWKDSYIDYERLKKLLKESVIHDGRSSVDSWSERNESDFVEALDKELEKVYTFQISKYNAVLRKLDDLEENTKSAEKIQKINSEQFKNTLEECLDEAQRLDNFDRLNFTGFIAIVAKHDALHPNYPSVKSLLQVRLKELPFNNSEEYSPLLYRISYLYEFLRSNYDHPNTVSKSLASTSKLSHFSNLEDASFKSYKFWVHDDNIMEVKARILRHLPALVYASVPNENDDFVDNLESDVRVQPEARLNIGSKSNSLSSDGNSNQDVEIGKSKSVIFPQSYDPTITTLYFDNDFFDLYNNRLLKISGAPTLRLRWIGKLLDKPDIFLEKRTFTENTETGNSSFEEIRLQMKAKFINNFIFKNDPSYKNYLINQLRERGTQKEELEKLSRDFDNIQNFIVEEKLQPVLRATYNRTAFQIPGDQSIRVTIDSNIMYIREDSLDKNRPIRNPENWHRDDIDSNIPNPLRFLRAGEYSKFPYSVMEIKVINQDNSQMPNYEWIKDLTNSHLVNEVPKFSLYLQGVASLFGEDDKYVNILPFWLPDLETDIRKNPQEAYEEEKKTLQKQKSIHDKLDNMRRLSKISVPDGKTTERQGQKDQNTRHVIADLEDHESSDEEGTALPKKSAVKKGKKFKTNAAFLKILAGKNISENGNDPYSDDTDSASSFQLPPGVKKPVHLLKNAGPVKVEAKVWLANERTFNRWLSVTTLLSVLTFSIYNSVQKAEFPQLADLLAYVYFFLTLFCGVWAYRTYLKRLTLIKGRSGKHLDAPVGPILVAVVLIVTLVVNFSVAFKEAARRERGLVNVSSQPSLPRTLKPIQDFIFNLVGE
T1 sequence (P40046 2-129 partner): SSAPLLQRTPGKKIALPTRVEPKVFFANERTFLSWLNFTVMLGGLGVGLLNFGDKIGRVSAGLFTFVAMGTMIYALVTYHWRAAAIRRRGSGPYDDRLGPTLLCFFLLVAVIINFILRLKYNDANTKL
Assay: polyP synthesis, TBE-PAGE
Assay type: biochemical
Conditions: activator; 15 mM ATP, 10 mM MgCl2, 1 mM MnCl2, 0.5 mM pyrophosphate, 27 °C, 4 h; SPX KSC mutant

Compound: O=P(O)(O)O[C@H]1[C@H](OP(=O)(O)O)[C@@H](OP(=O)(O)O)[C@H](OP(=O)(O)O)[C@@H](OP(=O)(O)O)[C@H]1OP(=O)(O)O [InsP6]
- polyP synthesis, TBE-PAGE: residues had little effect on polyP synthesis

Source: PMC9911596 (Nature Communications, 2023)
